Results published in patent publication US20200296959A1, “DISINFECTION AND/OR STERILIZATION OF AGRICULTURAL CROPS” (priority 2019, published 2020).

Tested on: Bacillus atrophaeus spore strips
Test: Microbial decontamination barrel: sterilization of Steritest biological indicator spore strips
Method: Barrel Setup: All cycles were performed using a 48.8 gallon steel barrel with an airtight lid sealed with a rubber gasket.
Barrels were fitted with an SEC Sensor to monitor EO concentration throughout the cycle
The unit utilizes AN 7916 Anprolene gas release ampoules, which contain approximately 17.6 g of EO. The number of ampoules can be adjusted according to load weight.
Barrels were fitted with an observation chamber containing a chemical integrator, referred to a dosimeter. This allows sterilization progress to be monitored in real time with no disruption to the cycle.
An external recirculating abator cartridge was attached to the lid of the barrel to neutralize EO when the cycle is complete.
Humidichips, a Madgetech Datalogger, and a Steritest biological indicator including a Dosimeter and a Bacillus atrophaeus spore strip, were placed in the bottom of the barrel. An AN 7916 EO 17.6 g ampule was activated then placed in the bottom of the barrel.
Further, paper represents a reasonable proxy for agricultural materials such as hemp and marijuana, as all of these materials are all cellulosic materials.
In this example, the barrel was loaded with 150 lbs of paper. Humidichips, a Madgetech Datalogger, and a Steritest were placed in the middle of the load. The Barrel was filled to the top with cloth materials (which are also cellulosic materials). […]

For `C1CO1` [ethylene oxide], the “ethylene oxide levels sufficient to kill biological surrogates (Bacillus atrophaeus) included with each load” value (microbial decontamination barrel, each load) was “sufficient to kill 10^6 biological surrogates” and the “sterilization of Bacillus atrophaeus spore strips contained in the Steritest” value (seven 2-4 day cycles, 48.8 gallon barrel, 17.6 g EO ampoule, room temperature (around 20° C.), empty and paper loads) was “successfully sterilized”.
